According to US9434711B2 (Janssen Pharmaceutica, NV, priority 2007, dated 2016):

Target: canine TRPM8 (Canis lupus familiaris, UniProt Q1A7N1)
Assay: In Vitro Canine TRPM8 Functional Assay (Ca2+ fluorescence, icilin activation)
Format: cell-based
Conditions: for IC50: HEK293 cells stably expressing canine TRPM8, icilin activation, eight-point dose-response, read-out: IC50; for % Inh @ 0.2 (μM) / inhibition at 0.2 µM: compound at 0.2 μM, canine TRPM8, icilin activation; for inhibition at 0.2 µM: read-out: % Inh @ 0.2
How it was run: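 Cells (HEK293, stable canine TRPM8) are seeded 24 h before assay. They are then dye-loaded with Calcium 3 at 37 °C followed by room temperature. Compound is added and monitored for 5 min, after which icilin (~80% maximal response) is added.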

Sequence of canine TRPM8 (Q1A7N1 1-1104): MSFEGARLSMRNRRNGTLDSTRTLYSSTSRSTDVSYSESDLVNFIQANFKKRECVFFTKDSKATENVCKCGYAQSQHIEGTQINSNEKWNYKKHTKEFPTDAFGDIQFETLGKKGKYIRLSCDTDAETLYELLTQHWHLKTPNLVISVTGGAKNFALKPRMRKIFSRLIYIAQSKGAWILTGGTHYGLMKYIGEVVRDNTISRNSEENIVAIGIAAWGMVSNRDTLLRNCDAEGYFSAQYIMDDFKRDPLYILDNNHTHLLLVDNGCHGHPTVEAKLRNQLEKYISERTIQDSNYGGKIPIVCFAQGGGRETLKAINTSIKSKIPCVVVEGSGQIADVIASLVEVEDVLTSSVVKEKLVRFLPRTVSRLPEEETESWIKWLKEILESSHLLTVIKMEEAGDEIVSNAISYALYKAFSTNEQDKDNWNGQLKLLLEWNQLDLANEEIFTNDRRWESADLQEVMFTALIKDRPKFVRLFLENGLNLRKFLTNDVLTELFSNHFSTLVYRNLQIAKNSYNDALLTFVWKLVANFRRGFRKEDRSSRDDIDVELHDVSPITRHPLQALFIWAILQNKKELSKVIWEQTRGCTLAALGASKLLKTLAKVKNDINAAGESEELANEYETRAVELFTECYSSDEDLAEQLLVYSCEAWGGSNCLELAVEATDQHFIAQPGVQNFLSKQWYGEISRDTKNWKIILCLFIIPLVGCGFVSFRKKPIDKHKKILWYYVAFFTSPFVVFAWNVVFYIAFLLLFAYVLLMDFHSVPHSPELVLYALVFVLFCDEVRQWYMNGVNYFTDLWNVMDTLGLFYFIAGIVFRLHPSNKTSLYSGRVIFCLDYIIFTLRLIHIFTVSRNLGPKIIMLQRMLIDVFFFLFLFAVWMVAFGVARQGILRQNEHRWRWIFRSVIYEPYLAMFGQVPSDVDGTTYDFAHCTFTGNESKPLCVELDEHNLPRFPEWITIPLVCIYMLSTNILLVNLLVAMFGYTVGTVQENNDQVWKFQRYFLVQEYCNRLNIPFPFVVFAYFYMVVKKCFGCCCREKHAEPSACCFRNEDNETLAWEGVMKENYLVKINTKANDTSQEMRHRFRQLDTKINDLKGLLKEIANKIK

Structure (SMILES): O=S1NC(c2ccc(S(=O)(=O)N(CCCCC(F)(F)F)c3sc4ccccc4c3Cl)cc2)=NO1 (stereo not shown) [Compound 582, N-(3-Chloro-benzo[b]thiophen-2-yl)-N-(5,5,5-trifluoro-pentyl)-4-(3H-[1,2,3,5]oxathiadiazole-2-oxide)-benzenesulfonamide]
- IC50: 0.0503 µM
- % Inh @ 0.2 (μM): 96%

Structure (SMILES): O=c1[nH]c(-c2ccc(S(=O)(=O)N(CCCCC(F)(F)F)c3sc4ccccc4c3Br)cc2)no1 [Compound 583, N-(3-Bromo-benzo[b]thiophen-2-yl)-N-(5,5,5-trifluoro-pentyl)-4-(5-oxo-4,5-dihydro-[1,2,4]oxadiazol-3-yl)-benzenesulfonamide]
- inhibition at 0.2 µM: 100%

Structure (SMILES): O=c1[nH]c(-c2ccc(S(=O)(=O)N(CCCCC(F)(F)F)c3sc4ccccc4c3Cl)cc2)no1 [Compound 584, N-(3-Chloro-benzo[b]thiophen-2-yl)-N-(5,5,5-trifluoro-pentyl)-4-(5-oxo-4,5-dihydro-[1,2,4]oxadiazol-3-yl)-benzenesulfonamide]
- IC50: 0.0159 µM
- inhibition at 0.2 µM: 100%

Structure (SMILES): Nc1ccc(S(=O)(=O)N(CCC(F)(F)F)c2sc3ccccc3c2Cl)cc1 [Compound 585, 4-Amino-N-(3-chloro-benzo[b]thiophen-2-yl)-N-(3,3,3-trifluoro-propyl)-benzenesulfonamide]
- IC50: 0.0064 µM
- inhibition at 0.2 µM: 101%

Structure (SMILES): Nc1ccc(S(=O)(=O)N(CCC(F)(F)F)c2cc3ccccc3s2)cc1Cl [Compound 586, 4-Amino-N-(benzo[b]thiophen-2-yl)-3-chloro-N-(3,3,3-trifluoro-propyl)-benzenesulfonamide]
- IC50: 0.0346 µM
- inhibition at 0.2 µM: 100%

Structure (SMILES): Nc1ccc(S(=O)(=O)N(CCC(F)(F)F)c2sc3ccccc3c2Br)cc1 [Compound 587, 4-Amino-N-(3-bromo-benzo[b]thiophen-2-yl)-N-(3,3,3-trifluoro-propyl)-benzenesulfonamide]
- IC50: 0.0039 µM
- inhibition at 0.2 µM: 100%

Structure (SMILES): Nc1ccc(S(=O)(=O)N(CCC(F)(F)F)c2sc3ccccc3c2Br)cc1Br [Compound 588, 4-Amino-3-bromo-N-(3-bromo-benzo[b]thiophen-2-yl)-N-(3,3,3-trifluoro-propyl)-benzenesulfonamide]
- IC50: 0.0121 µM
- inhibition at 0.2 µM: 101%

Structure (SMILES): Cc1c(N(CCC2CC2)S(=O)(=O)c2ccc(C(=O)O)cc2F)sc2ccccc12 [Compound 589, N-(3-Methyl-benzo[b]thiophen-2-yl)-N-(2-cyclopropyl-ethyl)-2-fluoro-4-carboxy-benzenesulfonamide]
- IC50: 0.0042 µM
- inhibition at 0.2 µM: 100%

Structure (SMILES): Cc1c(N(CCC(F)(F)F)S(=O)(=O)c2ccc(C(=O)O)cc2F)sc2ccccc12 [Compound 590, N-(3-Methyl-benzo[b]thiophen-2-yl)-N-(3,3,3-trifluoro-propyl)-2-fluoro-4-carboxy-benzenesulfonamide]
- IC50: 0.0061 µM
- inhibition at 0.2 µM: 101%

Structure (SMILES): Cc1c(N(CCCCC(F)(F)F)S(=O)(=O)c2ccc(C(=O)O)cc2F)sc2ccccc12 [Compound 591, N-(3-Methyl-benzo[b]thiophen-2-yl)-N-(5,5,5-trifluoro-pentyl)-2-fluoro-4-carboxy-benzenesulfonamide]
- IC50: 0.0042 µM
- inhibition at 0.2 µM: 101%

Structure (SMILES): Cc1c(N(Cc2ccc(F)c(C(F)(F)F)c2)S(=O)(=O)c2ccc(C(=O)O)cc2F)sc2ccccc12 [Compound 592, N-(3-Methyl-benzo[b]thiophen-2-yl)-N-(4-fluoro-3-trifluoromethyl-benzyl)-2-fluoro-4-carboxy-benzenesulfonamide]
- IC50: 0.0018 µM
- inhibition at 0.2 µM: 101%

Structure (SMILES): CCCCN(c1sc2ccccc2c1C)S(=O)(=O)c1ccc(C(=O)O)cc1F [Compound 593, N-(3-Methyl-benzo[b]thiophen-2-yl)-N-(butyl)-2-fluoro-4-carboxy-benzenesulfonamide]
- IC50: 0.0076 µM
- inhibition at 0.2 µM: 101%

Structure (SMILES): O=S(=O)(c1ccc(-c2nnn[nH]2)cc1)N(CCC1CC1)c1sc2ccccc2c1Br [Compound 594, N-(3-Bromo-benzo[b]thiophen-2-yl)-N-(2-cyclopropyl-ethyl)-4-(1H-tetrazol-5-yl)-benzenesulfonamide]
- inhibition at 0.2 µM: 101%

Structure (SMILES): O=S(=O)(c1ccc(-c2nnn[nH]2)cc1)N(CCC(F)(F)F)c1sc2ccccc2c1Br [Compound 595, N-(3-Bromo-benzo[b]thiophen-2-yl)-N-(3,3,3-trifluoro-propyl)-4-(1H-tetrazol-5-yl)-benzenesulfonamide]
- inhibition at 0.2 µM: 101%

Structure (SMILES): O=S1NC(c2ccc(S(=O)(=O)N(CCC(F)(F)F)c3cc4ccccc4s3)cc2)=NO1 (stereo not shown) [Compound 596, N-(Benzo[b]thiophen-2-yl)-N-(3,3,3-trifluoro-propyl)-4-(3H-[1,2,3,5]oxathiadiazole-2-oxide)-benzenesulfonamide]
- % Inh @ 0.2 (μM): 17%

Structure (SMILES): Cc1c(N(CCC(F)(F)F)S(=O)(=O)c2ccc(C3=NOS(=O)N3)cc2)sc2ccccc12 (stereo not shown) [Compound 598, N-(3-Methyl-benzo[b]thiophen-2-yl)-N-(3,3,3-trifluoro-propyl)-4-(3H-[1,2,3,5]oxathiadiazole-2-oxide)-benzenesulfonamide]
- IC50: 0.0307 µM
- % Inh @ 0.2 (μM): 101%

Structure (SMILES): Cc1c(N(CCC(F)(F)F)S(=O)(=O)c2ccc(-c3noc(=O)[nH]3)cc2)sc2ccccc12 [Compound 599, N-(3-Methyl-benzo[b]thiophen-2-yl)-N-(3,3,3-trifluoro-propyl)-4-(5-oxo-4,5-dihydro-[1,2,4]oxadiazol-3-yl)-benzenesulfonamide]
- IC50: 0.0161 µM
- inhibition at 0.2 µM: 101%

Structure (SMILES): COC(=O)CCS(=O)(=O)N(CCC1CC1)c1sc2ccccc2c1C [Compound 600, N-(2-Cyclopropyl-ethyl)-N-(3-methyl-benzo[b]thiophen-2-yl)-2-carbomethoxy-ethanesulfonamide]
- IC50: 0.0089 µM
- inhibition at 0.2 µM: 101%

Structure (SMILES): COC(=O)CCS(=O)(=O)N(CCC(F)(F)F)c1sc2ccccc2c1C [Compound 601, N-(3-Methyl-benzo[b]thiophen-2-yl)-N-(3,3,3-trifluoro-propyl)-2-carbomethoxy-ethanesulfonamide]
- inhibition at 0.2 µM: 100%

Structure (SMILES): COC(=O)CCS(=O)(=O)N(CCCC(F)(F)F)c1sc2ccccc2c1C [Compound 602, N-(3-Methyl-benzo[b]thiophen-2-yl)-N-(4,4,4-trifluoro-butyl)-2-carbomethoxy-ethanesulfonamide]
- IC50: 0.0221 µM
- inhibition at 0.2 µM: 101%

Structure (SMILES): COC(=O)CCS(=O)(=O)N(CCCCC(F)(F)F)c1sc2ccccc2c1C [Compound 603, N-(3-Methyl-benzo[b]thiophen-2-yl)-N-(5,5,5-trifluoro-pentyl)-2-carbomethoxy-ethanesulfonamide]
- IC50: 0.0103 µM
- inhibition at 0.2 µM: 101%

Structure (SMILES): Cc1c(N(CCC(F)(F)F)S(=O)(=O)CCC(=O)O)sc2ccccc12 [Compound 604, N-(3-Methyl-benzo[b]thiophen-2-yl)-N-(3,3,3-trifluoro-propyl)-2-carboxy-ethanesulfonamide]
- inhibition at 0.2 µM: 13%

Structure (SMILES): Cc1c(N(CCCC(F)(F)F)S(=O)(=O)CCC(=O)O)sc2ccccc12 [Compound 605, N-(3-Methyl-benzo[b]thiophen-2-yl)-N-(4,4,4-trifluoro-butyl)-2-carboxy-ethanesulfonamide]
- inhibition at 0.2 µM: 18%

Structure (SMILES): Cc1c(N(CCCCC(F)(F)F)S(=O)(=O)CCC(=O)O)sc2ccccc12 [Compound 606, N-(3-Methyl-benzo[b]thiophen-2-yl)-N-(5,5,5-trifluoro-pentyl)-2-carboxy-ethanesulfonamide]
- IC50: 0.0905 µM
- inhibition at 0.2 µM: 75%

Structure (SMILES): O=S1NC(c2ccc(S(=O)(=O)N(CCC(F)(F)F)c3sc4ccccc4c3Br)cc2)=NO1 (stereo not shown) [Compound 607, N-(3-Bromo-benzo[b]thiophen-2-yl)-N-(3,3,3-trifluoro-propyl)-4-(3H-[1,2,3,5]oxathiadiazole-2-oxide)-benzenesulfonamide]
- IC50: 0.0368 µM
- % Inh @ 0.2 (μM): 101%

Structure (SMILES): O=c1[nH]c(-c2ccc(S(=O)(=O)N(CCC(F)(F)F)c3sc4ccccc4c3Br)cc2)no1 [Compound 608, N-(3-Bromo-benzo[b]thiophen-2-yl)-N-(3,3,3-trifluoro-propyl)-4-(5-oxo-4,5-dihydro-[1,2,4]oxadiazol-3-yl)-benzenesulfonamide]
- inhibition at 0.2 µM: 101%

Structure (SMILES): O=c1[nH]c(-c2ccc(S(=O)(=O)N(CCC(F)(F)F)c3sc4ccccc4c3Cl)cc2)no1 [Compound 609, N-(3-Chloro-benzo[b]thiophen-2-yl)-N-(3,3,3-trifluoro-propyl)-4-(5-oxo-4,5-dihydro-[1,2,4]oxadiazol-3-yl)-benzenesulfonamide]
- IC50: 0.0537 µM
- inhibition at 0.2 µM: 99%

Structure (SMILES): O=S1NC(c2ccc(S(=O)(=O)N(CCC3CC3)c3cc4ccccc4s3)cc2)=NO1 (stereo not shown) [Compound 610, N-(Benzo[b]thiophen-2-yl)-N-(cyclopropyl-ethyl)-4-(3H-[1,2,3,5]oxathiadiazole-2-oxide)-benzenesulfonamide]
- % Inh @ 0.2 (μM): 55%

Structure (SMILES): Cc1c(N(CCC2CC2)S(=O)(=O)c2ccc(C3=NOS(=O)N3)cc2)sc2ccccc12 (stereo not shown) [Compound 611, N-(3-Methyl-benzo[b]thiophen-2-yl)-N-(cyclopropyl-ethyl)-4-(3H-[1,2,3,5]oxathiadiazole-2-oxide)-benzenesulfonamide]
- IC50: 0.0146 µM
- % Inh @ 0.2 (μM): 101%

Structure (SMILES): O=c1[nH]c(-c2ccc(S(=O)(=O)N(CCC3CC3)c3cc4ccccc4s3)cc2)no1 [Compound 612, N-(Benzo[b]thiophen-2-yl)-N-(cyclopropyl-ethyl)-4-(5-oxo-4,5-dihydro-[1,2,4]oxadiazol-3-yl)-benzenesulfonamide]
- IC50: 0.0537 µM
- inhibition at 0.2 µM: 97%

Structure (SMILES): Cc1c(N(CCC2CC2)S(=O)(=O)c2ccc(-c3noc(=O)[nH]3)cc2)sc2ccccc12 [Compound 613, N-(3-Methyl-benzo[b]thiophen-2-yl)-N-(cyclopropyl-ethyl)-4-(5-oxo-4,5-dihydro-[1,2,4]oxadiazol-3-yl)-benzenesulfonamide]
- IC50: 0.0066 µM
- inhibition at 0.2 µM: 101%

Structure (SMILES): Cc1c(N(CCC2CC2)S(=O)(=O)c2ccccc2)sc2ccccc12 [Compound 614, N-(2-Cyclopropyl-ethyl)-N-(3-methyl-benzo[b]thiophen-2-yl)-benzenesulfonamide]
- IC50: 0.0074 µM
- inhibition at 0.2 µM: 101%
